Source: PMC8102410, “Coordinate regulation of systemic and kidney tryptophan metabolism by the drug transporters OAT1 and OAT3” (The Journal of Biological Chemistry, 2021)

Tests used:
Type in all cases: cell-based
OAT1 = biological target: T1, OAT1 (Homo sapiens, UniProt Q4U2R8); assay: inhibition of 6-carboxyfluorescein uptake in HEK-293 cells stably overexpressing human OAT1
T1 construct: gene SLC22A6
T1 sequence (Q4U2R8 1-563): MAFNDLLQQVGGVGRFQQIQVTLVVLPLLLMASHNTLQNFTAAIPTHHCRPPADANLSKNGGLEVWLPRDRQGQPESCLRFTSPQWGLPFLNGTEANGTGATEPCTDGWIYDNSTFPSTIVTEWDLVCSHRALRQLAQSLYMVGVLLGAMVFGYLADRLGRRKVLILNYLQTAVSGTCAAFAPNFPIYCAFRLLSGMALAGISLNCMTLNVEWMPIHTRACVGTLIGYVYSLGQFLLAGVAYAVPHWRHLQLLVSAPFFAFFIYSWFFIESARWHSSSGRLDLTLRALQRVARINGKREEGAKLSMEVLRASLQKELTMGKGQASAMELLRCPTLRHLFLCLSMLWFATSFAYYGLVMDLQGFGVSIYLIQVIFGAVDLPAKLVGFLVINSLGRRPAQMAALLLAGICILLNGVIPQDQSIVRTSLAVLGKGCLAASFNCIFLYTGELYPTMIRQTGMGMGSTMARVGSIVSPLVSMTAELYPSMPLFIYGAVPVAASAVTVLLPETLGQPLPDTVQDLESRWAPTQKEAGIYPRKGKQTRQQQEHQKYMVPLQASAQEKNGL

OAT3 [1] = biological target: T2, OAT3 (Homo sapiens, UniProt Q8TCC7); assay: inhibition of 6-carboxyfluorescein uptake in HEK-293 cells stably overexpressing human OAT3
T2 construct: gene SLC22A8
T2 sequence (Q8TCC7 1-542): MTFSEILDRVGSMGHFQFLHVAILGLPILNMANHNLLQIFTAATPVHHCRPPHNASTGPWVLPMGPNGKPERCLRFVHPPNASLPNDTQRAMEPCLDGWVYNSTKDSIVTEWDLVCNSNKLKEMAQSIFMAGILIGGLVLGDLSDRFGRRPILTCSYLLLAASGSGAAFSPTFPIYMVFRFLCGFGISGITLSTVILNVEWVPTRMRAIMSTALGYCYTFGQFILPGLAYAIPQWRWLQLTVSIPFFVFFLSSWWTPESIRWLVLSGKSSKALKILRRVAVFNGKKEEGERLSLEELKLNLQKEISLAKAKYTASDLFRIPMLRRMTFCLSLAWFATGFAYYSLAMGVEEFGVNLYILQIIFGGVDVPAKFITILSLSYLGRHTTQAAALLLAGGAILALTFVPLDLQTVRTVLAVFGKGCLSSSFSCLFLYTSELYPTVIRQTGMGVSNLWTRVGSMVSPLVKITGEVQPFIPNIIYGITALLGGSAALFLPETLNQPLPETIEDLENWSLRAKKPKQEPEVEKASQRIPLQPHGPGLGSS

OAT3 [2] = biological target: T2, OAT3; assay: inhibition of 6-carboxyfluorescein uptake in HEK-293 cells stably overexpressing human OAT3 (data not shown)

Row | SMILES | IC50 (OAT1) [µM] | IC50 (OAT3 [1]) [µM] | IC50 (OAT3 [2]) [µM]
1 | O=C(O)[C@@H](O)Cc1c[nH]c2ccccc12 [ILA, indolelactic acid] | 229 ± 74.6 | 74.5 ± 23.3 | 
2 | NCCc1c[nH]c2ccc(O)cc12 [serotonin] |  |  | 288 ± 167
